Like-named read-outs stand apart in the source and are kept apart here.
Legend:
[1] = tested on: adenosine uptake into HeLa cells; assay: [3H]Adenosine uptake assay in HeLa cells; format: cell-based; settings: 60 minutes uptake, read-out: ADU inhibition IC50 (adenosine uptake inhibition potency)
Method: Compounds were also screened in an adenosine uptake functional cellular assay using the protocol described below.
Adenosine uptake activity was determined by monitoring the accumulation of tritiated adenosine into HeLa cells (ATCC catalog # CCL-2) using a PMT-based radiometric detection instrument. In this assay, the potency (IC50) of each compound was determined from a ten point (1:3 serial dilution; final compound concentration range in assay from 10 μM to 0.032 nM) titration curve using the following outlined procedure. To each well of a 96-well CytoStar-T scintillating microplate (Perkin Elmer Catalog # RPNQ0163), 25 000 HeLa cells in 100 μL of growth medium comprising: Minimum Essential Media (Life Technologies Catalog # 11095-080)+10% (v/v) foetal bovine serum (FBS; Sigma Aldrich Catalog # F2442) was added. These cells were incubated overnight at 37° C. in a humidified atmosphere with 5% (v/v) CO2. After this time the growth medium was removed and replaced with 40 μL assay medium comprising: Hanks balanced salts solution (HBSS; Thermo Fisher Catalog # SH30268.01)+5% (v/v) FBS. Compound stock solutions in DMSO were diluted in assay medium to 2.5× final compound concentration maintaining a constant DMSO concentration of 0.25% (v/v). 40 μL of compound in assay medium was dispensed into individual wells of the Cytostar-T plates and the plates were incubated for 30 minutes under ambient laboratory conditions. Following this incubation, 20 μL of 500 nM [^3H]adenosine (American Radiolabeled Chemicals Inc. Catalog # ART0287) in assay medium was added and incubated for a further 60 minutes under ambient laboratory conditions. The amount of radiolabel accumulation was then determined using a Perkin Elmer Topcount NXT microplate reader. In brief, HeLa cells adhere to the bottom of the Cytostar-T plate, uptake of [^3H]adenosine into these cells brings the radiolabel into sufficient proximity to excite the scintillant in the base of the plates. These events are captured by single PMT, time-resolved coincidence counting. IC50 values were determined by 4 parameter robust fit of counts per second values vs. (Log10) compound concentrations.

[2] = molecular target: T1, BTK enzyme (full-length BTK, hBTK) (Homo sapiens, UniProt Q06187); assay: Btk enzyme activity assay (LANCE TR-FRET); format: biochemical; settings: 50 pM hBTK, 25 μM ATP, 60 minute compound and enzyme incubation, read-out: BTK binding IC50
T1 construct: recombinant protein from baculovirus-transfected Sf9 cells: full-length BTK, 6HIS-tag cleaved; 6HIS (cleaved yes); made in house; host or cells: baculovirus-transfected Sf9 cells
T1 sequence (Q06187 whole entry): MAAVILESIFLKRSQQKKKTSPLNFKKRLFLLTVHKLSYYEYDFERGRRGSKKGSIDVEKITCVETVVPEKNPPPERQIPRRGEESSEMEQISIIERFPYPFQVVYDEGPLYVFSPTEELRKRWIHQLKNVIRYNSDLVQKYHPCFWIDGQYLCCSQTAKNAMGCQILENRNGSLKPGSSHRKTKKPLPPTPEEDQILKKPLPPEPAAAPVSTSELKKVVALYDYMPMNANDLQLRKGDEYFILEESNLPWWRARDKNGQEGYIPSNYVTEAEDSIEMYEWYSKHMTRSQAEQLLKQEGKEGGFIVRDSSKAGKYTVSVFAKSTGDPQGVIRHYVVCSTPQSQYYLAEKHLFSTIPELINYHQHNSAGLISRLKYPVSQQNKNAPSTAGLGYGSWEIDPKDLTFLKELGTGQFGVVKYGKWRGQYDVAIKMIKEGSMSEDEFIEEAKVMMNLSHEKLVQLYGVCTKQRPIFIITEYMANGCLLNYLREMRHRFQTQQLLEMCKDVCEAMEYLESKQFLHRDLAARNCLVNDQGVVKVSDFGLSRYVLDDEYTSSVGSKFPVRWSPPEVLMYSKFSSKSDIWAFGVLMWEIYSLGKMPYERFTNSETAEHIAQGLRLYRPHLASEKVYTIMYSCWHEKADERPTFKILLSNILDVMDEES
Method: BTK enzymatic activity was determined with the LANCE (Lanthanide Chelate Excite) TR-FRET (Time-resolved fluorescence resonance energy transfer) assay. […] To each well of a black non-binding surface Corning 384-well microplate (Corning Catalog #3820), 5 nL of compound (2000 fold dilution in final assay volume of 10 μL) was dispensed, followed by the addition of 7.5 μL of 1× kinase buffer (50 mM Hepes 7.5, 10 mM MgCl2, 0.01% Brij-35, 1 mM EGTA, 0.05% BSA & 1 mM DTT) containing 5.09 pg/μL (66.67 pM) of BTK enzyme (recombinant protein from baculovirus-transfected Sf9 cells: full-length BTK, 6HIS-tag cleaved). Following a 60 minute compound and enzyme incubation, each reaction was initiated by the addition of 2.5 μL 1× kinase buffer containing 8 μM biotinylated “A5” peptide (Biotin-[…]-NH2) (SEQ.ID.NO.: 1), and 100 μM ATP. The final reaction in each well of 10 μL consists of 50 pM hBTK, 2 μM biotin-A5-peptide, and 25 μM ATP. Phosphorylation reactions were allowed to proceed for 120 minutes. Reactions were immediately quenched by the addition of 20 uL of 1× quench buffer (15 mM EDTA, 25 mM Hepes 7.3, and 0.1% Triton X-100) containing detection reagents (0.626 nM of LANCE-Eu-W1024-anti-phosphoTyrosine antibody, PerkinElmer and 86.8 nM of Streptavidin-conjugated Dylight 650, Dyomics/ThermoFisher Scientific). After 60 minutes incubation with detection reagents, reaction plates were read on a PerkinElmer EnVision plate reader using standard TR-FRET protocol. Briefly, excitation of donor molecules (Eu-chelate:anti-phospho-antibody) with a laser light source at 337 nm produces energy that can be transferred to Dylight-650 acceptor molecules if this donor:acceptor pair is within close proximity. Fluorescence intensity at both 665 nm (acceptor) and 615 nm (donor) are measured and a TR-FRET ratio calculated for each well (acceptor intensity/donor intensity). IC50 values were determined by 4 parameter robust fit of TR-FRET ratio values vs. (Log10) compound concentrations.
The following Table 2 provides specific IC50 values for all the examples. The IC50 values set forth below were determined according to Assay method described above.

IC50 ([1]; Homo sapiens, HeLa) [nM] | IC50 [2] [nM] | IC50 [1] [nM] | Compound
1340 | 1.25 |  | CCOc1cc(C(=O)Nc2cc(C(F)(F)F)ccn2)ccc1-c1nc([C@H]2CN3C(=O)[C@H]4CCCN4C[C@@H]3CO2)n2ccnc(N)c12 [Compound 35, 4-{8-amino-3-[(3R,6aR,11aR)-6-oxooctahydro-1H,6H-pyrrolo [1′,2′:4,5]pyrazino[2,1-c][1,4]oxazin-3-yl]imidazo[1,5-a]pyrazin-1-yl}-3-ethoxy-N-[4-(trifluoromethyl)pyridin-2-yl] benzamide]
1250 | 1 |  | CCOc1cc(C(=O)Nc2cc(C(F)(F)F)ccn2)ccc1-c1nc([C@H]2CN3C(=O)[C@@H]4CCCN4C[C@@H]3CO2)n2ccnc(N)c12 [Compound 36, 4-{8-amino-3-[(3R,6aS,11aR)-6-oxooctahydro-1H,6H-pyrrolo[1′,2′:4,5]pyrazino[2,1-c][1,4]oxazin-3-yl]imidazo[1,5-a]pyrazin-1-yl}-3-ethoxy-N-[4-(trifluoromethyl)pyridin-2-yl]benzamide]
375 | 0.186 |  | CCOc1cc(C(=O)Nc2cc(C#N)ccn2)cc(F)c1-c1nc(C2CCC3N(C2)C(=O)CC32CC2)n2c(Cl)cnc(N)c12 (centres unmarked) [Compound 37, 4-[8-amino-5-chloro-3-(3′-oxohexahydro-5′H-spiro[cyclopropane-1,1′-indolizin]-6′-yl)imidazo[1,5-a]pyrazin-1-yl]-N-(4-cyanopyridin-2-yl)-3-ethoxy-5-fluorobenzamide]
765 | 0.222 |  | CCOc1cc(C(=O)Nc2cc(C#N)ccn2)cc(F)c1-c1nc(C2CCC3N(C2)C(=O)CC32CC2)n2ccnc(N)c12 (centres unmarked) [Compound 38, 4-[8-amino-3-(3′-oxohexahydro-5′H-spiro[cyclopropane-1,1′-indolizin]-6′-yl)imidazo[1,5-a]pyrazin-1-yl]-N-(4-cyanopyridin-2-yl)-3-ethoxy-5-fluorobenzamide]
1350 | 0.322 |  | CCOc1cc(C(=O)Nc2cc(C(F)(F)F)ccn2)ccc1-c1nc(C2CCC3N(C2)C(=O)CNC32CC2)n2ccnc(N)c12 (centres unmarked) [Compound 39, 4-[8-amino-3-(4′-oxohexahydro-2′H,6′H-spiro[cyclopropane-1,1′-pyrido[1,2-a]pyrazin]-7′-yl)imidazol[1,5-a]pyrazin-1-yl]-3-ethoxy-N-[4-(trifluoromethyl)pyridin-2-yl]benzamide]
168 | 0.173 |  | Nc1nccn2c([C@@H]3CC[C@H]4CNC5(CC5)C(=O)N4C3)nc(-c3ccc(C(=O)Nc4cc(C(F)(F)F)ccn4)cc3)c12 [Compound 40, 4-{8-amino-3-[(7′R,9a′S)-4′-oxohexahydro-2′H-spiro[cyclopropane-1,3′-pyrido[1,2-a]pyrazin]-7′-yl]imidazo[1,5-a]pyrazin-1-yl}-N-[4-(trifluoromethyl)pyridin-2-yl]benzamide]
1340 | 0.252 |  | COc1cc(C(=O)Nc2cc(C(F)(F)F)ccn2)ccc1-c1nc([C@@H]2CC[C@H]3CNC4(CC4)C(=O)N3C2)n2ccnc(N)c12 [Compound 41, 4-{8-amino-3-[(7′R,9a′S)-4′-oxohexahydro-2′H-spiro[cyclopropane-1,3′-pyrido[1,2-a]pyrazin]-7′-yl]imidazo[1,5-a]pyrazin-1-yl}-3-methoxy-N-[4-(trifluoromethyl)pyridin-2-yl]benzamide]
 | 0.231 | 2220 | CCOc1cc(C(=O)Nc2cc(C(F)(F)F)ccn2)ccc1-c1nc(C2CCC3N(C2)C(=O)CNC32CC2)n2ccnc(N)c12 (centres unmarked) [Compound 42, 4-[8-amino-3-(4′-oxohexahydro-2′H,6′H-spiro[cyclopropane-1,1′-pyrido[1,2-a]pyrazin]-7′-yl)imidazo[1,5-a]pyrazin-1-yl]-3-ethoxy-N-[4-(trifluoromethyl)pyridin-2-yl]benzamide]
 | 5.61 | 1190 | CCOc1cc(C(=O)Nc2cc(C(F)(F)F)ccn2)ccc1-c1nc(C2CCC3N(C2)C(=O)CNC32CC2)n2ccnc(N)c12 (centres unmarked) [Compound 43, 4-[8-amino-3-(4′-oxohexahydro-2′H,6′H-spiro[cyclopropane-1,1′-pyrido[1,2-a]pyrazin]-7′-yl)imidazo[1,5-a]pyrazin-1-yl]-3-ethoxy-N-[4-(trifluoromethyl)pyridin-2-yl]benzamide]
785 | 0.249 |  | CCOc1cc(C(=O)Nc2cc(C(F)(F)F)ccn2)ccc1-c1nc([C@@H]2CC[C@H]3CN(CC)C4(CC4)C(=O)N3C2)n2ccnc(N)c12 [Compound 44, 4-{8-amino-3-[(7′R,9a′S)-2′-ethyl-4′-oxohexahydro-2′H-spiro[cyclopropane-1,3′-pyrido[1,2-a]pyrazin]-7′-yl]imidazo[1,5-a]pyrazin-1-yl}-3-ethoxy-N-[4-(trifluoromethyl)pyridin-2-yl]benzamide]
1580 | 0.241 |  | CCOc1cc(C(=O)Nc2cc(C(F)(F)F)ccn2)ccc1-c1nc([C@H]2CN3C(=O)C4(CC4)NC[C@@H]3CO2)n2ccnc(N)c12 [Compound 45, 4-{8-amino-3-[(3′R,9a′R)-6′-oxohexahydrospiro[cyclopropane-1,7′-pyrazino[2,1-c][1,4]oxazin]-3′-yl]imidazo[1,5-a]pyrazin-1-yl}-3-ethoxy-N-[4-(trifluoromethyl)pyridin-2-yl]benzamide]
524 | 0.528 |  | COc1cc(C(=O)Nc2cc(C(F)(F)F)ccn2)ccc1-c1nc([C@H]2CC[C@@H]3CC4(CC4)C(=O)N3C2)n2ccnc(N)c12 [Compound 47, 4-{8-amino-3-[(6′S,8a′R)-3′-oxohexahydrospiro[cyclopropane-1,2′-indolizin]-6′-yl]imidazo[1,5-a]pyrazin-1-yl}-3-methoxy-N-[4-(trifluoromethyl)pyridin-2-yl]benzamide]
998 | 1.19 |  | CCOc1cc(C(=O)Nc2cc(C(F)(F)F)ccn2)ccc1-c1nc([C@H]2CC[C@@H]3CC4(CC4)C(=O)N3C2)n2ccnc(N)c12 [Compound 48, 4-{8-amino-3-[(6′S,8a′R)-3′-oxohexahydrospiro[cyclopropane-1,2′-indolizin]-6′-yl]imidazo[1,5-a]pyrazin-1-yl}-3-ethoxy-N-[4-(trifluoromethyl)pyridin-2-yl]benzamide]

Reference: patent US10130630B2, “BTK inhibitors” (MERCK SHARP & DOHME CORP., priority 2014, dated 2018)
